Assay results published in US10364256B2 (GlaxoSmithKline Intellectual Property Development Limited, priority 2015, dated 2019).
pEC50, pIC50: −log10 of the molar value. Where two headings read alike, the source gives them in different places.

Tests used:
[1] = tested on: NQO1 specific enzyme activity in BEAS-2B cells (marker for NRF2 activation); assay: BEAS-2B NQO1 MTT Assay; assay type: cell-based; settings: Homo sapiens, compound incubated 48 hours, read-out: EC50 (NQO1 specific enzyme activity induction)
Summary of the method: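 NQO1 specific activity induction is derived from the rate of MTT reduction (ΔOD/min, 570 nm, 30 min kinetic read) in crude lysates of BEAS-2B cells exposed to compound for 48 h. A 3-parameter fit gives EC50, reported as pEC50; part of each lysate goes to Cell Titer Glo.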

[2] = target: T1, full length Keap1 protein / full length NRF2 protein (Homo sapiens, UniProt Q14145); assay: NRF2-Keap1 TR-FRET Low Protein Assay; assay type: binding; settings: 1.25 nM Keap1 FlagHis and 2.5 nM biotin-NRF2 added
T1 construct: full length NRF2 protein and full length Keap1 protein (Keap1 exists a dimer) are used; His
Summary of the method: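 Flag-tagged full-length Keap1 was preincubated with compound (3-fold series) for 2.25 h at 37 °C in Tris pH 8.0/MgCl2/NaCl/BSA/DTT/CHAPS. Biotin-Avi-NRF2 (added at 2.5 nM) was then bound for 1.25 h at 4 °C. Eu-streptavidin/anti-Flag-APC TR-FRET (665/615 nm) was read after 1 h at RT, and pIC50 came from a four-parameter fit.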

T1 sequence (Q14145 whole entry): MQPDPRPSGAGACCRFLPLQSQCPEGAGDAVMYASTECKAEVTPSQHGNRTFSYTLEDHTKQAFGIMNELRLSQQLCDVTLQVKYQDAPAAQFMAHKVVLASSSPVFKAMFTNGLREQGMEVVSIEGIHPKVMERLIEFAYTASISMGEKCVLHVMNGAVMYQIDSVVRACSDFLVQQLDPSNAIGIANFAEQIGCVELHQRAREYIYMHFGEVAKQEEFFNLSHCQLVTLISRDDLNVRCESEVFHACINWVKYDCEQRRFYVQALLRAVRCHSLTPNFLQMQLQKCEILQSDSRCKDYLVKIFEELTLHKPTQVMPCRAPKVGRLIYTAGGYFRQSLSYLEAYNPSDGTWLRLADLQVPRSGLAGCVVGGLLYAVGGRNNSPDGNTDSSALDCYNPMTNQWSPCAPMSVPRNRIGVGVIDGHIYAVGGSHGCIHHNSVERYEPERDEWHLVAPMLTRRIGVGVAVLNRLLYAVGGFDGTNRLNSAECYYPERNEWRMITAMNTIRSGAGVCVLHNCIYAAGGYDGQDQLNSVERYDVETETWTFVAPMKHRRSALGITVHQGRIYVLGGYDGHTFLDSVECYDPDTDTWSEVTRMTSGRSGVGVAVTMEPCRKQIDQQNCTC

Row | pIC50 [2] | SMILES | pEC50 [1] | pEC50 ([1]; BEAS-2B, 48 h)
1 | 7.00 to 8.00 | CCn1cc([C@H]2C[C@@H]2c2c(C(=O)O)cnn2-c2cccc(-c3cccc(OC(C)C4CCCCC4)c3)c2)nn1 (mixture of isomers) [Example 192, 1-(3′-(1-cyclohexylethoxy)-[1,1′-biphenyl]-3-yl)-5-((1,2-trans)-2-(1-ethyl-1H-1,2,3-triazol-4-yl)cyclopropyl)-1H-pyrazole-4-carboxylic acid] | 8.00 to 9.00 | 
2 | 7.00 to 8.00 | Cn1cc(C2CC2c2c(C(=O)O)cnn2-c2cccc(-c3cccc(OCC4CCCCC4)c3)c2)nn1 (stereo not drawn) [Example 164, 1-(3′-(Cyclohexylmethoxy)-[1,1′-biphenyl]-3-yl)-5-(2-(1-methyl-1H-1,2,3-triazol-4-yl)cyclopropyl)-1H-pyrazole-4-carboxylic acid] | 7.00 to 8.00 | 
3 | 7.00 to 8.00 | Cn1cc([C@@H]2C[C@H]2c2c(C(=O)O)cnn2-c2cccc(-c3cccc(OCC4CCSCC4)c3)c2)nn1 (racemic) [Example 149, 5-((1,2-trans)-2-(1-Methyl-1H-1,2,3-triazol-4-yl)cyclopropyl)-1-(3′-((tetrahydro-2H-thiopyran-4-yl)methoxy)-[1,1′-biphenyl]-3-yl)-1H-pyrazole-4-carboxylic acid] | 6.00 to 7.00 | 
4 | 6.00 to 7.00 | O=C(O)c1cnn(-c2cccc(-c3cccc(-n4ncc5c4CCCC5)c3)c2)c1C1CC1 [Example 62, 5-cyclopropyl-1-(3′-(4,5,6,7-tetrahydro-1H-indazol-1-yl)-[1,1′-biphenyl]-3-yl)-1H-pyrazole-4-carboxylic Acid] |  | 6.00 to 7.00
5 | 7.00 to 8.00 | Cn1cc([C@@H]2C[C@H]2c2c(C(=O)O)cnn2-c2cccc(-c3cccc(OC(C4CCCCC4)C(F)(F)F)c3)c2)nn1 (mixture of isomers) [Example 157, 1-(3′-(1-Cyclohexyl-2,2,2-trifluoroethoxy)-[1,1′-biphenyl]-3-yl)-5-((1,2-trans)-2-(1-methyl-1H-1,2,3-triazol-4-yl)cyclopropyl)-1H-pyrazole-4-carboxylic Acid] | 7.00 to 8.00 | 
6 | 7.00 to 8.00 | Cn1cc([C@@H]2C[C@H]2c2c(C(=O)O)cnn2-c2cccc(-c3cccc(OCCC4CCCCC4)c3)c2)nn1 (racemic) [Example 245, 1-(3′-(2-cyclohexylethoxy)-[1,1′-biphenyl]-3-yl)-5-(trans-2-(1-methyl-1H-1,2,3-triazol-4-yl)cyclopropyl)-1H-pyrazole-4-carboxylic Acid] | 7.00 to 8.00 | 
7 | 7.00 to 8.00 | CC(Oc1cccc(-c2cccc(-n3ncc(C(=O)O)c3C3CC3c3cn(C)nn3)c2)c1)c1ccccc1 (stereo not drawn) [Example 235, 5-(2-(1-Methyl-1H-1,2,3-triazol-4-yl)cyclopropyl)-1-(3′-(1-phenylethoxy)-[1,1′-biphenyl]-3-yl)-1H-pyrazole-4-carboxylic Acid] | 6.00 to 7.00 | 
8 | 7.00 to 8.00 | CC(Oc1cccc(-c2cccc(-n3ncc(C(=O)O)c3C3CC3c3cn(C)nn3)c2)c1)C1CC1 (stereo not drawn) [Example 231, 1-(3′-(1-Cyclopropylethoxy)-[1,1′-biphenyl]-3-yl)-5-(2-(1-methyl-1H-1,2,3-triazol-4-yl)cyclopropyl)-1H-pyrazole-4-carboxylic acid] | 6.00 to 7.00 | 
9 | > 8.00 | CCC[C@@H]1CCCCN1C(=O)c1cccc(-c2cccc(-n3nc(C)c(C(=O)O)c3C3CC3c3cn(C)nn3)c2)c1 (stereo partly drawn) [Example 202, 3-Methyl-5-(2-(1-methyl-1H-1,2,3-triazol-4-yl)cyclopropyl)-1-(3′-((R)-2-propylpiperidine-1-carbonyl)-[1,1′-biphenyl]-3-yl)-1H-pyrazole-4-carboxylic acid] |  | 6.00 to 7.00
10 | > 8.00 | CCC[C@@H]1CCCCN1C(=O)c1cncc(-c2cccc(-n3ncc(C(=O)O)c3C3CC3c3cn(C)nn3)c2)c1 (stereo partly drawn) [Example 197, 5-(2-(1-Methyl-1H-1,2,3-triazol-4-yl)cyclopropyl)-1-(3-(5-((R)-2-propylpiperidine-1-carbonyl)pyridin-3-yl)phenyl)-1H-pyrazole-4-carboxylic acid] |  | 5.00 to 6.00
11 | 7.00 to 8.00 | CC(Oc1cccc(-c2cccc(-n3ncc(C(=O)O)c3C3CC3c3cn(C)nn3)c2)c1)C1CCOCC1 (stereo not drawn) [Example 227, 5-(2-(1-Methyl-1H-1,2,3-triazol-4-yl)cyclopropyl)-1-(3′-(1-(tetrahydro-2H-pyran-4-yl)ethoxy)-[1,1′-biphenyl]-3-yl)-1H-pyrazole-4-carboxylic Acid] | 6.00 to 7.00 | 
12 | 7.00 to 8.00 | CO[C@H]1CC[C@H](COc2cccc(-c3cccc(-n4ncc(C(=O)O)c4[C@H]4C[C@@H]4c4cn(C)nn4)c3)c2)CC1 (racemic) [Example 176, 1-(3′-(((1R,4S)-4-Methoxycyclohexyl)methoxy)-[1,1′-biphenyl]-3-yl)-5-((1,2-trans)-2-(1-methyl-1H-1,2,3-triazol-4-yl)cyclopropyl)-1H-pyrazole-4-carboxylic acid] | 6.00 to 7.00 | 
13 | > 8.00 | CC[C@@H]1CN(Cc2cccc(-c3cccc(-n4ncc(C(=O)O)c4C4CC4c4cn(C)nn4)c3)c2)Cc2ccccc2O1 (stereo partly drawn) [Example 129, 1-(3′-(((R)-2-ethyl-2,3-dihydrobenzo[f][1,4]oxazepin-4(5H)-yl)methyl)-[1,1′-biphenyl]-3-yl)-5-(2-(1-methyl-1H-1,2,3-triazol-4-yl)cyclopropyl)-1H-pyrazole-4-carboxylic Acid] | 6.00 to 7.00 | 
14 | > 8.00 | CCC[C@@H]1CCCCN1C(=O)c1cccc(-c2cccc(-n3ncc(C(=O)O)c3C3CC3c3cnn(C)c3)c2)c1 (stereo partly drawn) [Example 213, 5-(2-(1-Methyl-1H-pyrazol-4-yl)cyclopropyl)-1-(3′-((R)-2-propylpiperidine-1-carbonyl)-[1,1′-biphenyl]-3-yl)-1H-pyrazole-4-carboxylic Acid] |  | 6.00 to 7.00
15 | 6.00 to 7.00 | Cn1cc([C@@H]2C[C@H]2c2c(C(=O)O)cnn2-c2cccc(-c3cncc(OCC4CCCCC4)c3)c2)nn1 (racemic) [Example 246, 1-(3-(5-(Cyclohexylmethoxy)pyridin-3-yl)phenyl)-5-(trans-2-(1-methyl-1H-1,2,3-triazol-4-yl)cyclopropyl)-1H-pyrazole-4-carboxylic Acid] | 5.00 to 6.00 | 
16 | 7.00 to 8.00 | CC(Oc1cccc(-c2cccc(-n3ncc(C(=O)O)c3C3CC3c3cn(C)nn3)c2)c1)C1CCCCC1 (stereo not drawn) [Example 219, 1-(3′-(1-Cyclohexylethoxy)-[1,1′-biphenyl]-3-yl)-5-(2-(1-methyl-1H-1,2,3-triazol-4-yl)cyclopropyl)-1H-pyrazole-4-carboxylic acid] |  | 7.00 to 8.00
17 | 6.00 to 7.00 | Cn1cc([C@H]2C[C@@H]2c2c(C(=O)O)cnn2-c2cccc(-c3cccc(OCc4cccc(-c5ccccc5)c4)c3)c2)nn1 (racemic) [Example 238, 1-(3′-([1,1′-Biphenyl]-3-ylmethoxy)-[1,1′-biphenyl]-3-yl)-5-((1,2- trans)-2-(1-methyl-1H-1,2,3-triazol-4-yl)cyclopropyl)-1H-pyrazole-4-carboxylic acid] | 6.00 to 7.00 | 
18 | 7.00 to 8.00 | Cn1cc(C2CC2c2c(C(=O)O)cnn2-c2cccc(-c3cccc(OCc4ccccc4F)c3)c2)nn1 (stereo not drawn) [Example 222, 1-(3′-((2-Fluorobenzyl)oxy)-[1,1′-biphenyl]-3-yl)-5-(2-(1-methyl-1H-1,2,3-triazol-4-yl)cyclopropyl)-1H-pyrazole-4-carboxylic acid] | 6.00 to 7.00 | 
19 | 6.00 to 7.00 | CCC[C@@H]1CCCCN1C(=O)c1cccc(-c2cccc(-n3ncc(C(=O)O)c3[C@H]3C[C@@H]3c3cn(C)nn3)c2)c1 [Example 51g, 5-[(1S,2S)-2-(1-methyl-1H-1,2,3-triazol-4-yl)cyclopropyl]-1-(3-{3-[(2R)-2-propylpiperidine-1-carbonyl]phenyl}phenyl)-1H-pyrazole-4-carboxylic Acid] |  | 5.00 to 6.00
20 | > 8.00 | CCC[C@@H]1CCCCN1C(=O)c1cccc(-c2cccc(-n3ncc(C(=O)O)c3C3CC3c3cnn(C)c3)c2)c1F (stereo partly drawn) [Example 214, 1-(2′-Fluoro-3′-((R)-2-propylpiperidine-1-carbonyl)-[1,1′-biphenyl]-3-yl)-5-(2-(1-methyl-1H-pyrazol-4-yl)cyclopropyl)-1H-pyrazole-4-carboxylic Acid] |  | 6.00 to 7.00
21 | 7.00 to 8.00 | COC(c1cccc(-c2cccc(-n3ncc(C(=O)O)c3C3CC3c3cn(C)nn3)c2)c1)C1CCCC1 (stereo not drawn) [Example 183, 1-(3′-(Cyclopentyl(methoxy)methyl)-[1,1′-biphenyl]-3-yl)-5-(2-(1-methyl-1H-1,2,3-triazol-4-yl)cyclopropyl)-1H-pyrazole-4-carboxylic acid] | 6.00 to 7.00 | 
22 | 7.00 to 8.00 | Cn1cc(C2CC2c2c(C(=O)O)cnn2-c2cccc(-c3cccc(OC4CCOCC4)c3F)c2)nn1 (stereo not drawn) [Example 234, 1-(2′-Fluoro-3′-((tetrahydro-2H-pyran-4-yl)oxy)-[1,1′-biphenyl]-3-yl)-5-(2-(1-methyl-1H-1,2,3-triazol-4-yl)cyclopropyl)-1H-pyrazole-4-carboxylic Acid] | 5.00 to 6.00 | 
23 | 7.00 to 8.00 | CCCC1(C)CCc2cnn(-c3cccc(-c4cccc(-n5ncc(C(=O)O)c5C5CC5)c4)c3)c21 (stereo not drawn) [Example 205, 5-Cyclopropyl-1-(3′-(6-methyl-6-propyl-5,6-dihydrocyclopenta[c]pyrazol-1(4H)-yl)-[1,1′-biphenyl]-3-yl)-1H-pyrazole-4-carboxylic Acid] | 6.00 to 7.00 | 
24 | 7.00 to 8.00 | COC(c1cccc(-c2cccc(-n3ncc(C(=O)O)c3C3CC3c3cn(C)nn3)c2)c1)C1CCCCC1 (stereo not drawn) [Example 244, 1-(3′-(Cyclohexyl(methoxy)methyl)-[1,1′-biphenyl]-3-yl)-5-(2-(1-methyl-1H-1,2,3-triazol-4-yl)cyclopropyl)-1H-pyrazole-4-carboxylic acid] | 6.00 to 7.00 | 
